{"source": "patent US5192756A", "about": "“Aminosterol antibiotic” (The Children's Hospital of Pennsylvania, priority 1992, dated 1993)", "key": {"Proteus vulgaris": {"test_system": "Proteus vulgaris", "experiment": "Minimal inhibitory concentration, Proteus vulgaris", "format": "cell-based", "conditions": "ATCC13315; Proteus vulgaris ATCC 13315; 1/2×TSB, 37° C., 18 to 24 hours", "procedure": "(§1) Squalamine was assayed in vitro against several microbial organisms to evaluate its spectrum of activity.\n(§2) Minimal inhibitory concentrations for the bacteria and yeast were determined by incubating 0.9-11×10^5 colony-forming units/ml of log-phase organisms in 1/2×tryptica soy broth (TSB) with increasing concentrations of sample in static 96-2311 microtiter plates (Corning, Inc., Corning, N.Y.) at 37° C. for 18 to 24 hours. The minimal inhibitory concentration is the concentration of sample at which no growth was observed. Control incubation in the absence of […] served to set a baseline value.\n(§3) Initial sample concentrations were 2 mg/ml in 250 mM sodium acetate pH 6.6, 11.2 mM HCl, except taurolithocholic acid 3-sulfate which was 2 mg/ml in 50 mM sodium acetate, and squalamine to which HCl was not added because it was acidic following the last step of purification. Spermidine HCl, taurolithocholic acid 3-sulfate, melittin, holothurin and ampicillin were purchased from Sigma (St. Louis, Miss.). CHAPS (3-[(3-cholamidopropyl)dimethylammonio]-1-propane sulfonate dihydrate) was purchased from Aldrich (Milwaukee, Wis.). Conessine was purchased from Aldrich Rare Chemicals Division (Milwaukee, Wis.). Magainin-II amide and CPF-amide were made by Magainin Pharmaceuticals, Inc. (Plymouth Meeting, Penn.). The CPF peptide used in the assay has the sequence […]-NH2. (Richter, K., et al., J. Biol. Chem. 261, 3676-3680 (1986)."}, "Paramecium caudatum": {"test_system": "Paramecium caudatum", "experiment": "Minimal disruptive concentration, Paramecium caudatum", "format": "cell-based", "conditions": "1% trypticase soy broth, light microscopy for ten minutes, read-out: Minimal Inhibitory Concentration (minimal disruptive concentration for the protozoa)", "procedure": "as §1, §3\n(§4) Minimal disruptive concentration (the concentration at which physical disruption of the protozoa occurred) was determined for the protozoa by adding […] of sample (in sodium acetate as above) to […] of 1% trypticase soy broth containing P. caudatum (Nasco, Fort Atkinson, Wiss,). Organisms were observed by light microscopy for ten minutes."}, "Pseudomonas aeruginosa": {"test_system": "Pseudomonas aeruginosa", "experiment": "Minimal inhibitory concentration, Pseudomonas aeruginosa", "format": "cell-based", "conditions": "ATCC27853; Pseudomonas aeruginosa ATCC 27853; 1/2×TSB, 37° C., 18 to 24 hours", "procedure": "as §1, §2, §3"}, "Staph. aureus": {"test_system": "Staph. aureus", "experiment": "Minimal inhibitory concentration, Staph. aureus", "format": "cell-based", "conditions": "Staphylococcus aureus, ATCC29213; Staph. aureus ATCC 29213; 1/2×TSB, 37° C., 18 to 24 hours", "procedure": "as §1, §2, §3"}, "Serratia marcescens": {"test_system": "Serratia marcescens", "experiment": "Minimal inhibitory concentration, Serratia marcescens", "format": "cell-based", "conditions": "ATCC8100; Serratia marcescens ATCC 8100; 1/2×TSB, 37° C., 18 to 24 hours", "procedure": "as §1, §2, §3"}, "E. coli": {"test_system": "E. coli", "experiment": "Minimal inhibitory concentration, E. coli", "format": "cell-based", "conditions": "Escherichia coli, ATCC25922; E. coli ATCC 25922; 1/2×TSB, 37° C., 18 to 24 hours", "procedure": "as §1, §2, §3"}, "E. coli D31 [1]": {"test_system": "E. coli D31", "experiment": "Protease resistance of antimicrobial activity (proteinase K)", "format": "in vitro ADME", "conditions": "proteinase K 2 mg/ml, one hour, 37° C.; E. coli D31 lawn", "procedure": "Proteinase K (final concentration 2 mg/ml) was added to 0.2 μg/μl squalamine or 0.8 μg/μl magainin II amide in 1×phosphate-buffered saline. After a one hour incubation at 37° C., 2 μl of each sample was applied to the lawn of E. coli D31."}, "E. coli D31 [2]": {"test_system": "E. coli D31", "experiment": "Heat resistance of antimicrobial activity (boiling)", "format": "physicochemical", "conditions": "0.2 μg/ml in 1×phosphate buffered saline, boiled fifteen minutes, E. coli D31 lawn", "procedure": "Squalamine at 0.2 μg/ml in 1×phosphate buffered saline was boiled for fifteen minutes. A 2 μl aliquot of the sample before and after boiling was applied to a lawn of E. coli D31."}, "[3]": {"test_system": "several microbial organisms", "experiment": "In vitro antimicrobial spectrum (bacteria, fungi, protozoa), in words", "format": "cell-based", "procedure": "as §1, §2, §3, §4"}, "[4]": {"experiment": "Tissue distribution of squalamine in Squalus acanthias", "procedure": "The tissue distribution of squalamine was determined by extraction of freshly obtained tissues of Squalus using the same procedure as described in Example 1 for the stomach extraction. Other Squalus acanthias tissues (about 50 g of liver, gallbladder, spleen, testes, gill and intestine) were extracted as above, and purified through the C18 HPLC stage. Antimicrobial activity was detected in each tissue, and one reversed-phasefraction from each tissue was analyzed by FAB mass spectroscopy. The yield from the stomach was determined by spotting several dilutions onto a TLC plate and comparing the ninhydrin staining to a spermidine standard curve. The result agreed with the estimate obtained by NMR spectroscopy when the squalamine signal intensity was compared to that of a standard. An estimate of the yield of squalamine from other tissues was made by comparing the antimicrobial activity of reversed-phase fractions to the activity from the stomach."}, "human erythrocytes": {"test_system": "human erythrocytes", "experiment": "Hemolytic activity against human erythrocytes", "format": "cell-based", "procedure": "Because of its structural resemblance to steroidal detergents, squalamine was assayed for its hemolytic activity against human erythrocytes.\nEach sample was diluted in H2 O and was added to a 10% (vol/vol) suspension of human erythrocytes in phosphate buffered saline (PBS). Erythrocytes were collected with heparin and washed once in 1×PBS before the assay. Samples were incubated at 37° C. for ten minutes, centrifuged at 12,000× g for one minute, and the OD350 of the supernatant was measured. Addition of Triton X-100 (final concentration 0.1%) defined 100% hemolysis."}, "Candida albicans": {"test_system": "Candida albicans", "experiment": "Minimal inhibitory concentration, Candida albicans", "format": "cell-based", "conditions": "ATCC14053; Candida albicans ATCC 14053; 1/2×TSB, 37° C., 18 to 24 hours", "procedure": "as §1, §2, §3"}, "Strep. faecalis": {"test_system": "Strep. faecalis", "experiment": "Minimal inhibitory concentration, Strep. faecalis", "format": "cell-based", "conditions": "Enterococcus faecalis, ATCC29212; Strep. faecalis ATCC 29212; 1/2×TSB, 37° C., 18 to 24 hours", "procedure": "as §1, §2, §3"}}, "note": "“Also recorded” adds a separate entry of the source.", "data": [{"compound": "CC(C)C(CC[C@@H](C)[C@H]1CC[C@H]2[C@@H]3[C@H](O)C[C@H]4C[C@@H](NCCCNCCCCN)CC[C@]4(C)[C@H]3CC[C@]12C)OS(=O)(=O)O", "note": "(stereo partly drawn) [Squalamine, 3β(N-[3-aminopropyl]-1,4-butanediamine)-7α,24.zeta.-dihydroxy-5α-cholestane 24-sulfate]", "values": [{"measurement": "MIC", "setting": "Proteus vulgaris", "result": "4 to 8", "unit": "µg/mL"}, {"measurement": "MIC", "setting": "Paramecium caudatum", "result": "4 to 8", "unit": "µg/mL"}, {"measurement": "MIC", "setting": "Pseudomonas aeruginosa", "result": "4 to 8", "unit": "µg/mL"}, {"measurement": "MIC", "setting": "Staph. aureus", "result": "1 to 2", "unit": "µg/mL"}, {"measurement": "MIC", "setting": "Serratia marcescens", "result": "> 125", "unit": "µg/mL"}, {"measurement": "MIC", "setting": "E. coli", "result": "1 to 2", "unit": "µg/mL"}, {"measurement": "antimicrobial activity after proteinase K digestion", "setting": "E. coli D31 [1]", "result": "retained its activity; also recorded: resistant to boiling and protease treatment"}, {"measurement": "antimicrobial activity after boiling", "setting": "E. coli D31 [2]", "result": "retained its antimicrobial activity after boiling"}, {"measurement": "antimicrobial activity after boiling", "setting": "E. coli D31 [2]; listed as squalamine", "result": "resistant to boiling and protease treatment"}, {"measurement": "antibacterial activity (in words)", "setting": "[3]; bacteria of Table I", "result": "compares in antibacterial potency to ampicillin"}, {"measurement": "antibiotic activity (in words)", "setting": "[3]; bacteria, fungi, protozoa, concentration range studied", "result": "broad range of potent antibiotic activity against a plurality of microorganisms including gram-positive and gram-negative bacteria, fungi, protozoa and the like; also recorded: somewhat more potent than the Xenopus antimicrobial peptides"}, {"measurement": "squalamine content of tissue", "setting": "[4]; gills", "result": 0.5, "unit": "μg/gm"}, {"measurement": "squalamine content of tissue", "setting": "[4]; intestine", "result": 0.02, "unit": "μg/gm"}, {"measurement": "squalamine content of tissue", "setting": "[4]; liver and gall bladder", "result": "4-7 μg/gm"}, {"measurement": "squalamine content of tissue", "setting": "[4]; spleen", "result": "about 2 μg/gm"}, {"measurement": "squalamine content of tissue", "setting": "[4]; stomach", "result": 1, "unit": "μg/gm"}, {"measurement": "squalamine content of tissue", "setting": "[4]; testes", "result": "about 2 μg/gm"}, {"measurement": "hemolytic activity (in words)", "setting": "human erythrocytes; FIG. 3, 37° C., ten minutes", "result": "exhibits some hemolytic activity, it occurs at higher concentrations than observed for a non-selective membrane disruptive amphipathic peptide, such as mellitin"}, {"measurement": "antibiotic versus hemolytic concentration / selectivity (in words)", "setting": "human erythrocytes; antibiotic activity compared with erythrocyte disruption", "result": "exerts antibiotic activity at concentrations below which erythrocyte disruption is observed"}, {"measurement": "MIC", "setting": "Candida albicans", "result": "4 to 8", "unit": "µg/mL"}, {"measurement": "MIC", "setting": "Strep. faecalis", "result": "1 to 2", "unit": "µg/mL"}]}]}
